Source: patent US8236984B2, “Compound and use thereof in the treatment of amyloidosis” (Pentraxin Therapeutics Ltd., priority 2007, dated 2012)

What was measured:
[1] = biological target: T1, thyroxine binding globulin (TBG) (Homo sapiens, UniProt P05543); test: T4 displacement from T4 binding proteins in whole serum (agarose gel electrophoresis, densitometry); conditions: increasing concentrations of ligand
T1 construct: from tissue; host or cells: whole serum
T1 sequence (P05543 21-415): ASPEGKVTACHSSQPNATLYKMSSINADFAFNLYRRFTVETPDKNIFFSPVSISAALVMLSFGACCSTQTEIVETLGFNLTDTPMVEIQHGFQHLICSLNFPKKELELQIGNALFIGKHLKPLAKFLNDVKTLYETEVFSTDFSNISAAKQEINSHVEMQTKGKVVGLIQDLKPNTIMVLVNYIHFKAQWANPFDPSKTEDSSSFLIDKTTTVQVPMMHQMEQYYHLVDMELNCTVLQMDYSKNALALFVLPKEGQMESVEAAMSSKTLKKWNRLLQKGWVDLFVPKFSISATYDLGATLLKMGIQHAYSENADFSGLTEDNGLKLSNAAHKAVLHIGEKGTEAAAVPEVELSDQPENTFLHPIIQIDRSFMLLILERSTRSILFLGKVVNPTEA
Excerpt: 3.2.3.3. […] After the electrophoresis, the proteins were transferred by capillary diffusion to a nitrocellulose membrane and subjected to phosphor imaging (Typhoon 8600; […], Amersham Biosciences). The two known T4-binding proteins, transthyretin and thyroxine binding globulin (TBG), were distinctly visualized, while albumin binding appears as a radioactive smear between them.

[2] = biological target: T2, V30M transthyretin (Homo sapiens, UniProt P02766, V50M); test: Mass spectrometric analysis of ligand dissociation under increasing cone voltage; type: binding; conditions: equimolar 4.4 μM with wild type, 2 fold excess of ligand
T2 construct: made in house
Excerpt: 4.3. Mass spectrometric analysis of dissociation of 4ajm15 from wild type and amyloidogenic variant transthyretin. ESMS spectra were acquired under increasing cone voltage conditions to induce stepwise dissociation of the ligand from wild type transthyretin and amyloidogenic variants V30M and L55P transthyretin. As the cone voltage increases splitting becomes apparent in the tetramer peaks, corresponding to apo (protein alone) and holo (protein+ligand) transthyretin as ligand begins to dissociate.
The onset of ligand dissociation from V30M transthyretin occurs at the same energy level but the peak height corresponding to apo V30M transthyretin is lower than that for wild type (FIG. 17). Since these two species have very similar amino acid sequences (and therefore similar charging during MS ionisation) they are able to act as internal standards for each other. Therefore a lower peak height for apo V30M compared to apo WT is indicative of a lower proportion of apo V30M than apo WT. At increasing energy levels apo V30M is consistently lower relative to apo WT and as ligand dissociation from WT is complete, a proportion of holo V30M is still present.
V30M transthyretin and [^15N, ^13C] wild type transthyretin in a 2 fold excess of ligand. […]

effect on binding of T4 by TBG [1]: did not affect
peak height of apo V30M transthyretin at onset of dissociation (spectrum β) [2]: ~45%
Structure (SMILES): O=C(O)c1ccccc1Nc1cc(Cl)c(OCCCCCCCCCCCOc2c(Cl)cc(Nc3ccccc3C(=O)O)cc2Cl)c(Cl)c1 [4ajm15, 2,2′-(4,4′-(undecane-1,11-diylbis(oxy))bis(3,5-dichloro-4,1-phenylene))bis(azanediyl)dibenzoic acid]
